The test system of data set [1] is cryopreserved hepatocytes. Description: Hepatocyte stability and metabolite profiling, monkey. It counts as in vitro ADME. The conditions noted are these: monkey hepatocyte samples, 10 and 20 minute. The method, then:
The objective of this study was to investigate the stability of the test compound, CBG, in human, rat, dog, mouse, monkey and minipig cryopreserved hepatocytes. Follow-on metabolite profiling was performed.
CBG was incubated up to 2 hr with cryopreserved hepatocytes. Cryopreserved hepatocytes in suspension were added to test compound in supplemented media following pre-incubation to initiate the reaction and the reactions were stopped by organic solvent at the appropriate time points. The termination plates were centrifuged and sample supernatants were analysed using Cyprotex generic LC MS/MS conditions to generate intrinsic clearance values for CBG. Two control compounds for each species were included in the assay and if the values for these compounds were not within the specified limits the results were rejected and the experiment repeated.
Following the hepatocyte stability assay the samples were 59 tilized for metabolite profiling using suitable high-resolution LC-MS/MS conditions. The 40 and 60 minute human samples, 20 and 120 minute rat samples, 10 and 20 minute dog and monkey samples, 20 and 60 minute mouse samples, and 40 and 120 minute minipig samples were compared against the 0 minute control sample to establish which and how many metabolites were formed. […]
The areas and percentages reported for the parent and metabolites were calculated using the XIC data. […]

Data set [2] addresses T1, adrenoceptor alpha 2A (ADRA2A) (Homo sapiens, UniProt P08913).
T1 construct: expressed in transfected cells
T1 sequence (P08913 1-465): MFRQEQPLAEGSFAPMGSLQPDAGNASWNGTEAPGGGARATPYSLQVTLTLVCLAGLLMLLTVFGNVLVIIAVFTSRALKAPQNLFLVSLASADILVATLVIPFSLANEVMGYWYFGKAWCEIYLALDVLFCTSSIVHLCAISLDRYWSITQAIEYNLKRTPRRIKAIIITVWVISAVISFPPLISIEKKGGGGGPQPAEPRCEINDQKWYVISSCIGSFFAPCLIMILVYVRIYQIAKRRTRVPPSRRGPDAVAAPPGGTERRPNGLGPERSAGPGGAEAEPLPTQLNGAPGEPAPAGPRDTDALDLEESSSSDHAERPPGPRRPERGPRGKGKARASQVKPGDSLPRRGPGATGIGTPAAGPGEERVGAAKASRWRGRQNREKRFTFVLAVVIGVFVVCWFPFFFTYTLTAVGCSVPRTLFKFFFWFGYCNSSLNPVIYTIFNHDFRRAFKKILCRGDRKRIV
The data set is described as follows: ADRA2A agonist assay (cAMP secondary messenger pathway, HitHunter cAMP XS+). It counts as cell-based. From the text:
Compounds of the present disclosure (e.g., one or more compounds of Formula (1), (II), (III), Table 1 or Table 2) may be tested for activity in receptor binding assays using methods known in the art, to evaluate agonist, antagonist, inverse agonist and other modes of activity. For example compounds of the disclosure may be tested in a adrenoceptor alpha 2A (ADRA2A) Agonist assay as follows:
Cell lines stably expressing non-tagged adrenoceptor alpha 2A (ADRA2A) that signal through cAMP were used. Agonist assays monitored by the activation of ADRA2A via Gi or Gs secondary messenger signaling in a homogenous, non-imaging assay format using a technology called Enzyme Fragment Complementation (EFC) with P-galactosidase (p-Gal) as the functional reporter.
The enzyme is split into two complementary portions: EA for Enzyme Acceptor and ED for Enzyme Donor. ED is fused to cAMP and in the assay competes with cAMP generated by cells for binding to a cAMP-specific antibody. Active P-Gal is formed by complementation of exogenous EA to any unbound ED cAMP. Active enzyme can then convert a chemiluminescent substrate, generating an output signal detectable on a standard microplate reader.
• 1. cAMP assay ADRA2A cell lines were expanded from freezer stocks according to standard procedures. • 2. Cells were seeded in a total volume of 20 μL into white walled, 384 well microplates and incubated at 37° C. for the appropriate time prior to testing • 3. cAMP modulation was determined using the DiscoverX HitHunter cAMP XS+ assay Gs Agonist Format • 1. For agonist determination, cells were incubated with sample to induce response. • 2. Media was aspirated from cells and replaced with 15 μL 2:1 HBSS/10 mM Hepes: cAMP XS+Ab reagent. • 3. Intermediate dilution of sample stocks was performed to generate 4× sample in assay buffer. • 4. 5 μL of 4× sample was added to cells and incubated at 37° C. or room temperature for 30 or 60 minutes. Vehicle concentration was 1%. Gi Agonist Format • 1. For agonist determination, cells were incubated with sample in the presence of EC80 forskolin to induce response. • 2. Media was aspirated from cells and replaced with 15 μL 2:1 HBSS/10 mM Hepes: cAMP XS+Ab reagent. • 3. Intermediate dilution of sample stocks was performed to generate 4× sample in assay buffer containing 4× EC80 forskolin. • 4. 5 μL of 4× sample was added to cells and incubated at 37° C. or room temperature for 30 or 60 minutes. Final assay vehicle concentration was 1% Signal Detection • 1. After appropriate compound incubation, assay signal was generated through incubation with 20 μL cAMP XS+ED/CL lysis cocktail for one hour followed by incubation with 20 μL cAMP XS+EA reagent for three hours at room temperature. • 2. Microplates were read following signal generation with a PerkinElmer Envision™ instrument for chemiluminescent signal detection. Data Analysis • 1. Compound activity was analyzed using CBIS data analysis suite (ChemInnovation, CA) • 2. For Gs agonist mode assays, percentage activity is calculated using the following formula: % Activity=100%×(mean RLU of test sample−mean RLU of vehicle control)/(mean RLU of MAX control−mean RLU of vehicle control). • 3. For Gi agonist mode assays, percentage activity is calculated using the following formula: % Activity=100%×(1−(mean RLU of test sample-mean RLU of MAX control)/(mean RLU of vehicle control-mean RLU of MAX control))

pEC50: −log10 of the molar value.

Take `CCCCCc1cc(O)c(C/C=C(\C)CCC=C(C)C)c(O)c1` [CBG, cannabigerol]: the “metabolites observed (number)” value in data set [1] is given as “four”. In addition, in data set [2], the “Curve Bottom” value is reported as 17.138, the “Curve Top” value worked out at 167.56 and the Hill was 1.5564. The Emax in data set [2] (read-out: Max Response) is 163%. Also, the pEC50 in data set [2] (read-out: RC50 (Result Type EC50)) is 5.87.

For orientation: pEC50 means −log10 of the EC50, conventionally taken in molar units.
